Experimental data from US12258327B2, “5-membered heteroaryl-containing aminopyridine compounds as EGFR inhibitors” (YUHAN CORPORATION, priority 2021, dated 2025).
Read-outs that look alike come from different tables or passages of the source.

Tests used:
EGFR del19/C797S = EGFR del19/C797S (Homo sapiens, UniProt P00533, C797S/DEL746-750); assay: Biochemical EGFR kinase assay (Lance Ultra TR-FRET), double mutant del19/C797S
Procedure, shortened: (§1)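 Step 1: compound in kinase buffer, 0.003–10 μM. Step 2: kinase reaction 1 h at room temperature. Step 4: TR-FRET read at 615/665 nm; IC50 calculated.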

EGFR wildtype (WT) = EGFR wildtype (WT) (Homo sapiens, UniProt P00533); assay: Biochemical EGFR kinase assay (Lance Ultra TR-FRET), wildtype
Procedure, shortened: as §1

EGFR del19/T790M/C797S = EGFR del19/T790M/C797S (Homo sapiens, UniProt P00533, C797S/DEL746-750/T790M); assay: Biochemical EGFR kinase assay (Lance Ultra TR-FRET), triple mutant del19/T790M/C797S
Procedure, shortened: as §1

EGFR L858R/C797S = EGFR L858R/C797S (Homo sapiens, UniProt P00533, C797S/L858R); assay: Biochemical EGFR kinase assay (Lance Ultra TR-FRET), double mutant L858R/C797S
Procedure, shortened: as §1

EGFR L858R/T790M/C797S = EGFR L858R/T790M/C797S (Homo sapiens, UniProt P00533, C797S/L858R/T790M); assay: Biochemical EGFR kinase assay (Lance Ultra TR-FRET), triple mutant L858R/T790M/C797S
Procedure, shortened: as §1

[1] = IC50 del19/C797S (nM) 100 μM ATP, 100 μM ATP
[2] = Km ATP, read-out: IC50 del19/C797S (nM) Km ATP
[3] = IC50 WT (nM) 100 μM ATP, 100 μM ATP
[4] = Km ATP, read-out: IC50 WT (nM) Km ATP
[5] = IC50 del19/T790M/C797S (nM) 100 μM ATP, 100 μM ATP
[6] = Km ATP, read-out: IC50 del19/T790M/C797S (nM) Km ATP
[7] = IC50 L858R/C797S (nM) 100 μM ATP, 100 μM ATP
[8] = Km ATP, read-out: IC50 L858R/C797S (nM) Km ATP
[9] = IC50 L858R/T790M/C797S (nM) 100 μM ATP, 100 μM ATP
[10] = Km ATP, read-out: IC50 L858R/T790M/C797S (nM) Km ATP

EGFR del19/T790M/C797S, sequence (P00533 with tags, fused parts or gaps DEL746-750/T790M/C797S): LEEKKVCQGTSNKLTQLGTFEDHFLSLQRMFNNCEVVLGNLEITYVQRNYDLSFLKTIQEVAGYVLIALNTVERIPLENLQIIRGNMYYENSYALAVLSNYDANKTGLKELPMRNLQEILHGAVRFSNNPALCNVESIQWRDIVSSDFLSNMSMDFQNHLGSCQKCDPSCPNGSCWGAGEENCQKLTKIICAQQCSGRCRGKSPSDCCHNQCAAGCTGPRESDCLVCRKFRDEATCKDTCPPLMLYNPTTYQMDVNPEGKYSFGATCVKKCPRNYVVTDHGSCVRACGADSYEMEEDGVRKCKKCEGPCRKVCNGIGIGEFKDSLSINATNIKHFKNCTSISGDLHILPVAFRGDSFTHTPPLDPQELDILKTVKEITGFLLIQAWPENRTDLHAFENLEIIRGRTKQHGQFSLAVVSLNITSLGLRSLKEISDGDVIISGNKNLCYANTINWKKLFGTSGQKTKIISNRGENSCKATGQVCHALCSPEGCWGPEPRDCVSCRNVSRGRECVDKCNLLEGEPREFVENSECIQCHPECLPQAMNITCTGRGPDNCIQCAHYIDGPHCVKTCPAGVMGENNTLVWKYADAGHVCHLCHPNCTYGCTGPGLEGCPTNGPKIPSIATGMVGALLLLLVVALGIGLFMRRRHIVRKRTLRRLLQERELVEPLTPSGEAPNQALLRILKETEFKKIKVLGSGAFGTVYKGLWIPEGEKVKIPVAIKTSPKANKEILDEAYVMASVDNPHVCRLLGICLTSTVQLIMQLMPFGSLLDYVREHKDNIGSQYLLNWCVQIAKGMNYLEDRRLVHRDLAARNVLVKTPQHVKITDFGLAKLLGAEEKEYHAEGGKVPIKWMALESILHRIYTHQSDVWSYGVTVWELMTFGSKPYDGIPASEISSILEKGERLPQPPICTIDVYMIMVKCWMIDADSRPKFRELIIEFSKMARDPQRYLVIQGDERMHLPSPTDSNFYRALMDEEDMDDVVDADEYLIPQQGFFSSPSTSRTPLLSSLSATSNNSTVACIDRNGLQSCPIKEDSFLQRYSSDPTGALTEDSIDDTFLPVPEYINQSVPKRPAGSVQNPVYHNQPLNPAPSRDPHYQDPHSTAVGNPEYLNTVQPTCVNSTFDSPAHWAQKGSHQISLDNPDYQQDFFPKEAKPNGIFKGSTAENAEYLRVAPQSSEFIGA
EGFR wildtype (WT), sequence (P00533 25-1210): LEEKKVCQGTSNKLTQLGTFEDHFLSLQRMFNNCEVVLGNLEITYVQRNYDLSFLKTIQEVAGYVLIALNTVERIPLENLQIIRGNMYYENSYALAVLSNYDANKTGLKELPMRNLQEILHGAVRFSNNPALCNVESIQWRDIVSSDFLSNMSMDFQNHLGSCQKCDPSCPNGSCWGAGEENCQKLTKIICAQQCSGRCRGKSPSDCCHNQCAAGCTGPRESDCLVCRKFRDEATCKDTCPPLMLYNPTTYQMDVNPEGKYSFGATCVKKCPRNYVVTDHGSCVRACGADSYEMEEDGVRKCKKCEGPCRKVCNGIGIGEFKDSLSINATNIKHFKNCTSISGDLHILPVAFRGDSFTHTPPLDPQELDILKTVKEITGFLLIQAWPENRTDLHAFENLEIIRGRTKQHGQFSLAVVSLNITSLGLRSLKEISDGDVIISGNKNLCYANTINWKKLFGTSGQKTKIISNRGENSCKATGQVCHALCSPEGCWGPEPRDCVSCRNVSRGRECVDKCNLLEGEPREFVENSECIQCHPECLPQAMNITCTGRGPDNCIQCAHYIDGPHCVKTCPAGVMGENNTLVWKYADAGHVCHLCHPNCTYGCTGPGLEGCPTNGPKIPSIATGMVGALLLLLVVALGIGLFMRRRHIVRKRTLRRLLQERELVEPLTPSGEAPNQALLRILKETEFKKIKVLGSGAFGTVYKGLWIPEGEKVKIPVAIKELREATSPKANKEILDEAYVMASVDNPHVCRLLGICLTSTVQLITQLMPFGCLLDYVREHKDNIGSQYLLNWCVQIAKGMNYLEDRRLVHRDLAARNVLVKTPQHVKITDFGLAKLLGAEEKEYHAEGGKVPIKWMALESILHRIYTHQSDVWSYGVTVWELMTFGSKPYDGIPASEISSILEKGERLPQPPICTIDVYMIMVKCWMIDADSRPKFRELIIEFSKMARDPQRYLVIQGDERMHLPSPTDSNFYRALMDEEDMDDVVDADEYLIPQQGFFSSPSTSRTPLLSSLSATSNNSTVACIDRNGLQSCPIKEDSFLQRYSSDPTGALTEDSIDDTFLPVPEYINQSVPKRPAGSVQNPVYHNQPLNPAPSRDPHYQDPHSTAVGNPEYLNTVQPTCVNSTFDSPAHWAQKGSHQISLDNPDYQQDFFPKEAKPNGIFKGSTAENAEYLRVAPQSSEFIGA
EGFR L858R/C797S, sequence (P00533 25-1210 C797S/L858R): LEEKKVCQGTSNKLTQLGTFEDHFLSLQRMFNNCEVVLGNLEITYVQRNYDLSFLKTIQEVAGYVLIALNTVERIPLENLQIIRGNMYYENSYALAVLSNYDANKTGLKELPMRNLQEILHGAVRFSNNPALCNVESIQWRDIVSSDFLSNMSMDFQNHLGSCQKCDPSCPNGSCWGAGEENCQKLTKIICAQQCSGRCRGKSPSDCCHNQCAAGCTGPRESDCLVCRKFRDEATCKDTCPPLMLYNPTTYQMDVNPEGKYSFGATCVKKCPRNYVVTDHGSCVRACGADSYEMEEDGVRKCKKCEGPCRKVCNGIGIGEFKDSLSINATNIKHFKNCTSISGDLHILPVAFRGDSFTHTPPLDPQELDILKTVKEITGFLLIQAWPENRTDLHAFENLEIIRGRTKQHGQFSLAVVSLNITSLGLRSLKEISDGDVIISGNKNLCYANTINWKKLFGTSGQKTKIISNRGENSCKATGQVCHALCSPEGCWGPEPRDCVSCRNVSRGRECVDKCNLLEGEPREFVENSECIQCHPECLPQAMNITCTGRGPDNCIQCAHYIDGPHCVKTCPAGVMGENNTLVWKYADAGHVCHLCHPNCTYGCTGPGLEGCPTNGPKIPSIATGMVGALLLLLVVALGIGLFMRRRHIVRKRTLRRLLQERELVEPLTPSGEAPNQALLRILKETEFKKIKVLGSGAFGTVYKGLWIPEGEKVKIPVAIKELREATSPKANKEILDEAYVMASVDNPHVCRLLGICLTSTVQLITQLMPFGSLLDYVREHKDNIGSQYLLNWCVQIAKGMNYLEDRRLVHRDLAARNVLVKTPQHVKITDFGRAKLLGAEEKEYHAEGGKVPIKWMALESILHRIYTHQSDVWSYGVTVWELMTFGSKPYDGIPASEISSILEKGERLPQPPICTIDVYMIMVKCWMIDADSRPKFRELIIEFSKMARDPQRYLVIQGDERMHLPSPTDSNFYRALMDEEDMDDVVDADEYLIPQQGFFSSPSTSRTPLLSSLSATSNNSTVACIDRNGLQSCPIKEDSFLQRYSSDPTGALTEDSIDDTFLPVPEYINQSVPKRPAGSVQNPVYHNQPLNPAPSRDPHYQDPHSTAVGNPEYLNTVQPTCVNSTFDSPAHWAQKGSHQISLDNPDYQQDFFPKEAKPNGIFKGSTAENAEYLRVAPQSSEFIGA
EGFR L858R/T790M/C797S, sequence (P00533 25-1210 T790M/C797S/L858R): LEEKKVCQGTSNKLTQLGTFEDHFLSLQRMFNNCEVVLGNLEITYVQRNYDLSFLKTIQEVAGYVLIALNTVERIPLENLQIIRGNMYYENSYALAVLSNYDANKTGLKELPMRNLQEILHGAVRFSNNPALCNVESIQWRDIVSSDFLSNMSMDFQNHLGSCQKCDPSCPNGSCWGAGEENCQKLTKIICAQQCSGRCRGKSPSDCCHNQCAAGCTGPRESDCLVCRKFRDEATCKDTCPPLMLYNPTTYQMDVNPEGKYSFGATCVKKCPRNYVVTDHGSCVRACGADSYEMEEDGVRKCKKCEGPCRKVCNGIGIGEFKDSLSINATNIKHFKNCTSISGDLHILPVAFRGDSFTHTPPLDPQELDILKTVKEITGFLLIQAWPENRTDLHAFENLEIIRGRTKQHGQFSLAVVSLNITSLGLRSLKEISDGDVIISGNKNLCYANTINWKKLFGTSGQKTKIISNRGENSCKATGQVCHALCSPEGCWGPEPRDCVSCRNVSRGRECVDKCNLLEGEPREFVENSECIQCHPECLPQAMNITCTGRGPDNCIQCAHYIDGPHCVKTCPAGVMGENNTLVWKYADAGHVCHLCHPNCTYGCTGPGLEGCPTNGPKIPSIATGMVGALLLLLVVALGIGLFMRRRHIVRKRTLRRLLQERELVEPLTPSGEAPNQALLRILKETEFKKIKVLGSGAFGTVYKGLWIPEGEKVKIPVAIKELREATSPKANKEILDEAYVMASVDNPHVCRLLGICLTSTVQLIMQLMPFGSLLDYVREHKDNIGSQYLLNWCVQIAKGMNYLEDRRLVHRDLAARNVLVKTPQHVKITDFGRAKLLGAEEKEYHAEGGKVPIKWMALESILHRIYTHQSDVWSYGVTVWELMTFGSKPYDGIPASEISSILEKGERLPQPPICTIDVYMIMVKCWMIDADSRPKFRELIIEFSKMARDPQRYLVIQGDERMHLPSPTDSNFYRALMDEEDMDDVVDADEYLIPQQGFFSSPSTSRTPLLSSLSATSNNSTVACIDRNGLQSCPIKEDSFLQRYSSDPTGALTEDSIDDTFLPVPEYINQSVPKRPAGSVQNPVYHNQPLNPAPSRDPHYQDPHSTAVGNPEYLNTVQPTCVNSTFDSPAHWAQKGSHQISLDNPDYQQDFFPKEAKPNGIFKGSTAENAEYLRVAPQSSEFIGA

| SMILES | IC50 (EGFR del19/C797S; [1]) | IC50 (EGFR del19/C797S; [2]) | IC50 (EGFR wildtype (WT); [3]) | IC50 (EGFR wildtype (WT); [4]) | IC50 (EGFR del19/T790M/C797S; [5]) | IC50 (EGFR del19/T790M/C797S; [6]) | IC50 (EGFR L858R/C797S; [7]) | IC50 (EGFR L858R/C797S; [8]) | IC50 (EGFR L858R/T790M/C797S; [9]) | IC50 (EGFR L858R/T790M/C797S; [10]) | IC50 (EGFR del19/C797S; Km ATP, read-out: IC50 del19/C797S, Km ATP) | IC50 (EGFR wildtype (WT); Km ATP, read-out: IC50 WT, Km ATP) | IC50 (EGFR del19/T790M/C797S; Km ATP, read-out: IC50 del19/T790M/C797S, Km ATP) | IC50 (EGFR L858R/C797S; Km ATP, read-out: IC50 L858R/C797S, Km ATP) | IC50 (EGFR L858R/T790M/C797S; Km ATP, read-out: IC50 L858R/T790M/C797S, Km ATP) |
| --- | --- | --- | --- | --- | --- | --- | --- | --- | --- | --- | --- | --- | --- | --- | --- |
| CC1(CNc2cc(Nc3ccnc(-c4cnn(S(=O)(=O)C5CC5)c4)n3)ncc2-c2ccn(C(F)F)n2)CCC(O)CC1 (centres unmarked) [Example 128, 4-(((2-((2-(1-(Cyclopropylsulfonyl)-1H-pyrazol-4-yl)pyrimidin-4-yl)amino)-5-(1-(difluoromethyl)-1H-pyrazol-3-yl)pyridin-4-yl)amino)methyl)-4-methylcyclohexan-1-ol] | 40.8 nM | – | > 10000 nM | – | 3.1 nM | – | 1120 nM | – | 6.4 nM | – | – | – | – | – | – |
| O=S(=O)(C1CC1)n1cc(-c2nccc(Nc3cc(OC4CCC(O)C4)c(-c4ccn(C(F)F)n4)cn3)n2)cn1 (centres unmarked) [Example 67, 3-((2-((2-(1-(Cyclopropylsulfonyl)-1H-pyrazol-4-yl)pyrimidin-4-yl)amino)-5-(1-(difluoromethyl)-1H-pyrazol-3-yl)pyridin-4-yl)oxy)cyclopentan-1-ol] | 111 nM | 111 nM | > 10000 nM | 336 nM | 3.6 nM | 3.4 nM | 596 nM | 23.5 nM | 15.7 nM | 3.8 nM | – | – | – | – | – |
| C[C@]1(O)CC[C@@H](Nc2cc(Nc3ccnc(-c4cnn(CC(F)F)c4)n3)ncc2-n2ccc(C(F)F)n2)CC1 [Example 177, (1s,4s)-4-((2-((2-(1-(2,2-Difluoroethyl)-1H-pyrazol-4-yl)pyrimidin-4-yl)amino)-5-(3-(difluoromethyl)-1H-pyrazol-1-yl)pyridin-4-yl)amino)-1-methylcyclohexan-1-ol] | – | 1320 nM | – | 4620 nM | – | 0.8 nM | – | 36.6 nM | – | 0.8 nM | – | – | – | – | – |
| C[C@]1(O)CC[C@@H](Nc2cc(Nc3ccnc(-c4cnn(CC(F)F)c4)n3)ncc2-c2ccn(C(F)(F)F)n2)CC1 [Example 340, (1s,4s)-4-((2-((2-(1-(2,2-Difluoroethyl)-1H-pyrazol-4-yl)pyrimidin-4-yl)amino)-5-(1-(trifluoromethyl)-1H-pyrazol-3-yl)pyridin-4-yl)amino)-1-methylcyclohexan-1-ol] | – | – | – | – | – | – | – | – | – | – | 21.4 nM | 173 nM | 0.5 nM | 6.7 nM | 0.3 nM |
| O=S(=O)(C1CC1)n1cc(-c2nccc(Nc3cc(N[C@H]4CC[C@@H](F)CC4)c(-c4nc(C(F)F)cs4)cn3)n2)cn1 [Example 164, N^2-(2-(1-(Cyclopropylsulfonyl)-1H-pyrazol-4-yl)pyrimidin-4-yl)-5-(4-(difluoromethyl)thiazol-2-yl)-N^4-((1s,4s)-4-fluorocyclohexyl)pyridine-2,4-diamine] | – | 370 nM | – | 1210 nM | – | 8.8 nM | – | 135 nM | – | 4.8 nM | – | – | – | – | – |

Other lines, results leading:

| IC50 (EGFR del19/C797S; [1]) | IC50 (EGFR del19/C797S; [2]) | IC50 (EGFR wildtype (WT); [3]) | IC50 (EGFR wildtype (WT); [4]) | IC50 (EGFR del19/T790M/C797S; [5]) | IC50 (EGFR del19/T790M/C797S; [6]) | IC50 (EGFR L858R/C797S; [7]) | IC50 (EGFR L858R/C797S; [8]) | IC50 (EGFR L858R/T790M/C797S; [9]) | IC50 (EGFR L858R/T790M/C797S; [10]) | IC50 (EGFR del19/C797S; Km ATP, read-out: IC50 del19/C797S, Km ATP) | IC50 (EGFR wildtype (WT); Km ATP, read-out: IC50 WT, Km ATP) | IC50 (EGFR del19/T790M/C797S; Km ATP, read-out: IC50 del19/T790M/C797S, Km ATP) | IC50 (EGFR L858R/C797S; Km ATP, read-out: IC50 L858R/C797S, Km ATP) | IC50 (EGFR L858R/T790M/C797S; Km ATP, read-out: IC50 L858R/T790M/C797S, Km ATP) | SMILES |
| --- | --- | --- | --- | --- | --- | --- | --- | --- | --- | --- | --- | --- | --- | --- | --- |
| 0.4 nM | 0.1 nM | 387 nM | 0.8 nM | 0.1 nM | 0.1 nM | 0.9 nM | 0.1 nM | 0.1 nM | 0.1 nM | – | – | – | – | – | CN(C)CC1CCC(Nc2cc(Nc3ccnc(-c4cnn(S(=O)(=O)C5CC5)c4)n3)ncc2-c2ccn(C3COC3)n2)CC1 (centres unmarked) [Example 284, N^2-(2-(1-(Cyclopropylsulfonyl)-1H-pyrazol-4-yl)pyrimidin-4-yl)-N^4-((1s,4s)-4-((dimethylamino)methyl)cyclohexyl)-5-(1-(oxetan-3-yl)-1H-pyrazol-3-yl)pyridine-2,4-diamine] |
| 1.1 nM | 2.5 nM | 616 nM | 1.6 nM | 0.2 nM | 0.2 nM | 7 nM | 0.3 nM | 0.2 nM | 0.1 nM | – | – | – | – | – | CN(CC(F)F)C(=O)[C@H]1CC[C@@H](Nc2cc(Nc3ccnc(-c4cnn(S(=O)(=O)C5CC5)c4)n3)ncc2-c2ccn(C)n2)CC1 [Example 235, (1s,4s)-4-((2-((2-(1-(Cyclopropylsulfonyl)-1H-pyrazol-4-yl)pyrimidin-4-yl)amino)-5-(1-methyl-1H-pyrazol-3-yl)pyridin-4-yl)amino)-N-(2,2-difluoroethyl)-N-methylcyclohexane-1-carboxamide] |
| 21.8 nM | 31.4 nM | > 10000 nM | 199 nM | 0.8 nM | 0.9 nM | 189 nM | 9.4 nM | 5.8 nM | 0.8 nM | – | – | – | – | – | O=S(=O)(C1CC1)n1cc(-c2nccc(Nc3cc(OC4CCC(O)C4)c(-c4cnn(C(F)F)c4)cn3)n2)cn1 (centres unmarked) [Example 72, 3-((2-((2-(1-(Cyclopropylsulfonyl)-1H-pyrazol-4-yl)pyrimidin-4-yl)amino)-5-(1-(difluoromethyl)-1H-pyrazol-4-yl)pyridin-4-yl)oxy)cyclopentan-1-ol] |
| 30.1 nM | – | > 10000 nM | – | 3.5 nM | – | 1020 nM | – | 25.6 nM | – | – | – | – | – | – | CN(C)C(=O)n1cc(-c2nccc(Nc3cc(N[C@H]4CC[C@@](C)(O)CC4)c(-c4ccn(C(F)F)n4)cn3)n2)cn1 [Example 311, 4-(4-((5-(1-(Difluoromethyl)-1H-pyrazol-3-yl)-4-(((1s,4s)-4-hydroxy-4-methylcyclohexyl)amino)pyridin-2-yl)amino)pyrimidin-2-yl)-N,N-dimethyl-1H-pyrazole-1-carboxamide] |
| 3.8 nM | – | 5620 nM | – | 0.7 nM | – | 12.4 nM | – | 1 nM | – | – | – | – | – | – | O=S(=O)(C1CC1)n1cc(-c2nccc(Nc3cc(N[C@@H]4CC[C@H](O)C4)c(-c4ccn(C(F)F)n4)cn3)n2)cn1 [Example 13, (1S,3R)-3-((2-((2-(1-(Cyclopropylsulfonyl)-1H-pyrazol-4-yl)pyrimidin-4-yl)amino)-5-(1-(difluoromethyl)-1H-pyrazol-3-yl)pyridin-4-yl)amino)cyclopentan-1-ol] |
| 10.2 nM | 7.1 nM | 4510 nM | 15.4 nM | 0.9 nM | 1 nM | 400 nM | 19.9 nM | 1.1 nM | 0.3 nM | – | – | – | – | – | CN(C)CC1(C)CCC(Nc2cc(Nc3ccnc(-c4cnn(S(=O)(=O)C5CC5)c4)n3)ncc2-c2ccn(CC(F)F)n2)CC1 (centres unmarked) [Example 246, N^2-(2-(1-(Cyclopropylsulfonyl)-1H-pyrazol-4-yl)pyrimidin-4-yl)-5-(1-(2,2-difluoroethyl)-1H-pyrazol-3-yl)-N^4-(4-((dimethylamino)methyl)-4-methylcyclohexyl)pyridine-2,4-diamine] |
| 0.8 nM | 1 nM | 504 nM | 1.6 nM | 1.8 nM | – | 1.7 nM | 1.1 nM | 1 nM | 0.3 nM | – | – | – | – | – | Cn1nc(-c2cnc(Nc3ccnc(-c4cnn(S(=O)(=O)C5CC5)c4)n3)cc2N[C@H]2CC[C@@H](C(C)(C)O)CC2)cc1C(C)(C)O [Example 298, 2-(3-(6-((2-(1-(Cyclopropylsulfonyl)-1H-pyrazol-4-yl)pyrimidin-4-yl)amino)-4-(((1s,4s)-4-(2-hydroxypropan-2-yl)cyclohexyl)amino)pyridin-3-yl)-1-methyl-1H-pyrazol-5-yl)propan-2-ol] |
